From patent US10577363B2, “Substituted piperidine compounds” (EPIZYME, INC., priority 2014, dated 2020)

Tests used:
SMYD3 [1] = molecular target: T1, SMYD3 (Homo sapiens (Human), UniProt Q9H7B4); assay: SMYD3 biochemical assay (SPA, 3H-SAM methylation of MEKK2 protein substrate); settings: read-out: SMYD3 Biochem IC50*
Procedure, shortened: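 Enzyme: untagged full-length human SMYD3 from E. coli; substrate GST-tagged MEKK2 from insect cells. Buffer 25 mM Tris-Cl pH 8.0, 1 mM TCEP, 0.005% BSG/Tween 20. 30 min compound–enzyme preincubation at RT; 3H-SAM/MEKK2 start; stop with cold SAM (100 uM final); SPA readout in cpm.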

SMYD3 [2] = molecular target: T1, SMYD3; assay: SMYD3 cell assay (Trimethyl-MEKK2 In-Cell Western in 293T/17 cells); assay type: cell-based; settings: read-out: SMYD3 Cell IC50*
Procedure, shortened: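 In-Cell Western readout: methanol-fixed cells stained for trimethyl-MEKK2 and flag tag, ratio per well normalized to DMSO and background controls.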

T1 sequence (Q9H7B4 whole entry): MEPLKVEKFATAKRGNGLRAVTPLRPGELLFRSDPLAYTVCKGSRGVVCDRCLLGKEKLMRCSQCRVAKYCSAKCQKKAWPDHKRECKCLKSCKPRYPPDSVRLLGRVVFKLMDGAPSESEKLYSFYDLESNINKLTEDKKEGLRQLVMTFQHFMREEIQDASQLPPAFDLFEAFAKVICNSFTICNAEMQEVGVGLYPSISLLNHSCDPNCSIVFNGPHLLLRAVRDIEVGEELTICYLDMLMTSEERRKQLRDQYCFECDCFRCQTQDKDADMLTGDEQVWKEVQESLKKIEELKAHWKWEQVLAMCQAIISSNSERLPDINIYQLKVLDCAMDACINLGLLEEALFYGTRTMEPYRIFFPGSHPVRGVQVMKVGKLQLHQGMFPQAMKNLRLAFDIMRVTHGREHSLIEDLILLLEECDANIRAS

Structure (SMILES)	IC50 (SMYD3 [1]) [nM]	IC50 (SMYD3 [2]) [nM]
C[C@H]1C[C@@H](NC(=O)c2cc(C3CC3)on2)CCN1S(=O)(=O)CC[C@@H]1CCNC1 [compound 841, 5-cyclopropyl-N-((2S,4S)-2-methyl-1-((2-((S)-pyrrolidin-3-yl)ethyl)sulfonyl)piperidin-4-yl)isoxazole-3-carboxamide]	5.05	124
C[C@H](C1CCNCC1)S(=O)(=O)N1[C@@H]2CC[C@H]1C[C@@H](NC(=O)c1cc(C3CC3)on1)C2 [compound 842, 5-cyclopropyl-N-((1R,3R,5S)-8-(((R)-1-(piperidin-4-yl)ethyl)sulfonyl)-8-azabicyclo[3.2.1]octan-3-yl)isoxazole-3-carboxamide]	5.1	29
CC(C)CNC1CCN(S(=O)(=O)N2CC[C@H](NC(=O)c3cc(C4CC4)on3)C[C@@H]2C)CC1 [compound 843, 5-cyclopropyl-N-((2S,4S)-1-((4-(isobutylamino)piperidin-1-yl)sulfonyl)-2-methylpiperidin-4-yl)isoxazole-3-carboxamide]	5.11	77.7
CN(CCc1ccccc1)C1CCN(S(=O)(=O)N2[C@@H]3CC[C@H]2C[C@@H](NC(=O)c2cc(C4CC4)on2)C3)CC1 [compound 844, 5-cyclopropyl-N-((1R,3r,5S)-8-((4-(methyl(phenethyl)amino)piperidin-1-yl)sulfonyl)-8-azabicyclo[3.2.1]octan-3-yl)isoxazole-3-carboxamide]	5.28	305
O=C(N[C@H]1C[C@H]2CC[C@@H](C1)N2S(=O)(=O)N1CCC(NCCCO)CC1)c1cc(C2CC2)on1 [compound 845, 5-cyclopropyl-N-((1R,3r,5S)-8-((4-((3-hydroxypropyl)amino)piperidin-1-yl)sulfonyl)-8-azabicyclo[3.2.1]octan-3-yl)isoxazole-3-carboxamide]	5.3	86.3
CC(C)CCN(C)C1CCN(S(=O)(=O)N2[C@@H]3CC[C@H]2C[C@@H](NC(=O)c2cc(C4CC4)on2)C3)CC1 [compound 846, 5-cyclopropyl-N-((1R,3r,5S)-8-((4-(isopentyl(methyl)amino)piperidin-1-yl)sulfonyl)-8-azabicyclo[3.2.1]octan-3-yl)isoxazole-3-carboxamide]	5.36	80.2
C[C@H]1C[C@@H](NC(=O)c2cc(C3CC3)on2)CCN1S(=O)(=O)N1CCC(N2CCCC2)CC1 [compound 847, 5-cyclopropyl-N-((2S,4S)-2-methyl-1-((4-(pyrrolidin-1-yl)piperidin-1-yl)sulfonyl)piperidin-4-yl)isoxazole-3-carboxamide]	5.53	75.8
O=C(N[C@H]1C[C@H]2CC[C@@H](C1)N2S(=O)(=O)N1CCC(NCc2ccc(F)cc2)CC1)c1cc(C2CC2)on1 [compound 848, 5-cyclopropyl-N-((1R,3r,5S)-8-((4-((4-fluorobenzyl)amino)piperidin-1-yl)sulfonyl)-8-azabicyclo[3.2.1]octan-3-yl)isoxazole-3-carboxamide]	5.73	153
O=C(N[C@H]1C[C@H]2CC[C@@H](C1)N2S(=O)(=O)N1CCC2(CCN2)CC1)c1cc(C2CC2)on1 [compound 849, N-((1R,3r,5S)-8-((1,7-diazaspiro[3.5]nonan-7-yl)sulfonyl)-8-azabicyclo[3.2.1]octan-3-yl)-5-cyclopropylisoxazole-3-carboxamide]	5.95	62
O=C(N[C@H]1C[C@H]2CC[C@@H](C1)N2S(=O)(=O)N1CC2CCC(C1)N2CCCO)c1cc(C2CC2)on1 [compound 850, 5-cyclopropyl-N-((1R,3r,5S)-8-((8-(3-hydroxypropyl)-3,8-diazabicyclo[3.2.1]octan-3-yl)sulfonyl)-8-azabicyclo[3.2.1]octan-3-yl)isoxazole-3-carboxamide]	6.21	58.8
COCCN(C)C1CCN(S(=O)(=O)N2CC[C@H](NC(=O)c3cc(C4CC4)on3)C[C@@H]2C)CC1 [compound 851, 5-cyclopropyl-N-((2S,4S)-1-((4-((2-methoxyethyl)(methyl)amino)piperidin-1-yl)sulfonyl)-2-methylpiperidin-4-yl)isoxazole-3-carboxamide]	6.44	125
CCN(C)C1CCN(S(=O)(=O)N2[C@@H]3CC[C@H]2C[C@@H](NC(=O)c2cc(C4CC4)on2)C3)CC1 [compound 852, 5-cyclopropyl-N-((1R,3r,5S)-8-((4-(ethyl(methyl)amino)piperidin-1-yl)sulfonyl)-8-azabicyclo[3.2.1]octan-3-yl)isoxazole-3-carboxamide]	6.5	114
CC(C)CNC1CCN(S(=O)(=O)N2[C@@H]3CC[C@H]2C[C@@H](NC(=O)c2cc(C4CC4)on2)C3)CC1 [compound 853, 5-cyclopropyl-N-((1R,3r,5S)-8-((4-(isobutylamino)piperidin-1-yl)sulfonyl)-8-azabicyclo[3.2.1]octan-3-yl)isoxazole-3-carboxamide]	6.55	71
O=C(N[C@H]1C[C@H]2CC[C@@H](C1)N2S(=O)(=O)N1CC2CCC1CN2)c1cc(C2CC2)on1 [compound 855, N-((1R,3r,5S)-8-((2,5-diazabicyclo[2.2.2]octan-2-yl)sulfonyl)-8-azabicyclo[3.2.1]octan-3-yl)-5-cyclopropylisoxazole-3-carboxamide]	7.06	68.7
O=C(N[C@H]1C[C@H]2CC[C@@H](C1)N2S(=O)(=O)N1CCNCC1)c1cc(C2CC2)on1 [compound 856, 5-cyclopropyl-N-((1R,3r,5S)-8-(piperazin-1-ylsulfonyl)-8-azabicyclo[3.2.1]octan-3-yl)isoxazole-3-carboxamide]	7.09	46.7
CC1CC(CS(=O)(=O)N2[C@@H]3CC[C@H]2C[C@@H](NC(=O)c2cc(C4CC4)on2)C3)CC(C)N1 (stereo partly drawn) [compound 857, 5-cyclopropyl-N-((1R,3r,5S)-8-(((2,6-dimethylpiperidin-4-yl)methyl)sulfonyl)-8-azabicyclo[3.2.1]octan-3-yl)isoxazole-3-carboxamide]	7.09	130
C[C@H]1C[C@@H](NC(=O)c2cc(C3CC3)on2)CCN1S(=O)(=O)CC[C@H]1CCNC1 [compound 858, 5-cyclopropyl-N-((2S,4S)-2-methyl-1-((2-((R)-pyrrolidin-3-yl)ethyl)sulfonyl)piperidin-4-yl)isoxazole-3-carboxamide]	7.2	172
O=C(N[C@H]1C[C@H]2CC[C@@H](C1)N2S(=O)(=O)[C@H]1CC[C@H](NCCN2CCOCC2)CC1)c1cc(C2CC2)on1 [compound 859, 5-cyclopropyl-N-((1R,3R,5S)-8-(((1r,4R)-4-((2-morpholinoethyl)amino)cyclohexyl)sulfonyl)-8-azabicyclo[3.2.1]octan-3-yl)isoxazole-3-carboxamide]	7.43	209
CC(C)CN(C)C1CCN(S(=O)(=O)N2[C@@H]3CC[C@H]2C[C@@H](NC(=O)c2cc(C4CC4)on2)C3)CC1 [compound 860, 5-cyclopropyl-N-((1R,3r,5S)-8-((4-(isobutyl(methyl)amino)piperidin-1-yl)sulfonyl)-8-azabicyclo[3.2.1]octan-3-yl)isoxazole-3-carboxamide]	7.52	139
COCCNC1CCN(S(=O)(=O)N2CC[C@H](NC(=O)c3cc(C4CC4)on3)C[C@@H]2C)CC1 [compound 861, 5-cyclopropyl-N-((2S,4S)-1-((4-((2-methoxyethyl)amino)piperidin-1-yl)sulfonyl)-2-methylpiperidin-4-yl)isoxazole-3-carboxamide]	7.65	102
CCCN(C)C1CCN(S(=O)(=O)N2[C@@H]3CC[C@H]2C[C@@H](NC(=O)c2cc(C4CC4)on2)C3)CC1 [compound 862, 5-cyclopropyl-N-((1R,3r,5S)-8-((4-(methyl(propyl)amino)piperidin-1-yl)sulfonyl)-8-azabicyclo[3.2.1]octan-3-yl)isoxazole-3-carboxamide]	7.69	76.5
CCCNC1CCN(S(=O)(=O)N2[C@@H]3CC[C@H]2C[C@@H](NC(=O)c2cc(C4CC4)on2)C3)CC1 [compound 863, 5-cyclopropyl-N-((1R,3r,5S)-8-((4-(propylamino)piperidin-1-yl)sulfonyl)-8-azabicyclo[3.2.1]octan-3-yl)isoxazole-3-carboxamide]	7.77	80
CN1CC2CC1CN2S(=O)(=O)N1[C@@H]2CC[C@H]1C[C@@H](NC(=O)c1cc(C3CC3)on1)C2 [compound 864, 5-cyclopropyl-N-((1R,3r,5S)-8-((5-methyl-2,5-diazabicyclo[2.2.1]heptan-2-yl)sulfonyl)-8-azabicyclo[3.2.1]octan-3-yl)isoxazole-3-carboxamide]	8.22	86.2
CCNC1CCN(S(=O)(=O)N2[C@@H]3CC[C@H]2C[C@@H](NC(=O)c2cc(C4CC4)on2)C3)CC1 [compound 865, 5-cyclopropyl-N-((1R,3r,5S)-8-((4-(ethylamino)piperidin-1-yl)sulfonyl)-8-azabicyclo[3.2.1]octan-3-yl)isoxazole-3-carboxamide]	8.55	90.2
CC(C)CN1C2CCC1CN(S(=O)(=O)N1[C@@H]3CC[C@H]1C[C@@H](NC(=O)c1cc(C4CC4)on1)C3)C2 [compound 866, 5-cyclopropyl-N-((1R,3r,5S)-8-((8-isobutyl-3,8-diazabicyclo[3.2.1]octan-3-yl)sulfonyl)-8-azabicyclo[3.2.1]octan-3-yl)isoxazole-3-carboxamide]	8.63	201
